One data set deals with T1, STING WT (Homo sapiens, UniProt Q86WV6, H232R).
T1 construct: expressed in transfected cells
Nature of the data set: 293T STING digitonin reporter assay (WT haplotype). The note with it: digitonin permeabilised 293T reporter cells. The data set is classed as cell-based. Here is the method:
(§1) Digitonin Assay with 293T Reporter Cells. The generation of 293T reporter cells stably expressing different STING protein haplotypes (WT, HAQ, REF, AQ, or Q) was described previously (Novotna et al, J. Med. Chem. 2019,62, 10676). The cells were seeded at a density of 250 000 cells per cm^2 into 96 well white poly(D-lysine) coated plates in 100 µL of DMEM with high glucose supplemented with 10% heat inactivated FBS. Next day, the medium was removed, and compounds were added in 3-fold serial dilutions in a digitonin buffer containing 50 mM HEPES (pH 7.0), 100 mM KCl, 3 mM MgClz, 0.1 mM DTT, 85 mM sucrose, 0.2% (w/w) BSA, 1 mM ATP, 0.1 mM GTP, and 10 µg/mL digitonin A. After 30 min incubation at 37 °C with 5% CO2, the digitonin buffer was removed, cells were washed once with 100 µL of the cultivation medium, and 100 µL of fresh medium was added to each well. The plates with cells were further incubated for 5 h at 37 °C with 5% CO2. Thereafter, 50 µL of the medium was removed, and 30 µL of Bright-Glo Luciferase Assay System reagent was added to each well. […] Nonlinear regression curve fit with standard slope was used for EC50 value calculations. The EC50 value represents CDN concentration that gives half-maximal response of firefly luciferase in the 293T reporter assay.
Background: A reporter such as luciferase makes a cellular process visible.

Data set [1] relates to Her2 expressing HCC1954 breast tumor xenograft. Nature of the data set: Her2 expressing HCC1954 breast tumor xenograft model. The data set is classed as in vivo, SCID-beige mice. The note with it: single i.v. dose 1.7 mg/kg (40x higher payload dose than in 2.5 mg/kg mAb3-3.3) (Fig. 8). How it is done: For in vivo testing in the Her2 expressing HCC1954 breast cancer xenograft mouse model, female SCID-beige mice at 8 to 12 weeks of age (purchased from Charles River Lab) were used for implantation. HCC1954 cells (obtained from ATCC) were cultured in RPMI medium supplemented with 10% fetal bovine serum at 37°C in a humidified incubator with 5% CO2 On the day of implantation, 1 × 10^7 HCC1954 cells were re-suspended in 100µL RPMI1640 serum free media containing 50% Matrigel and implanted subcutaneously in the right flank. After implant, tumors were measured by caliper and mice were weighed two times per week once tumors were palpable. Tumor volumes were calculated from caliper measurements using formula (L × W^2)/2. Animals were pair matched when tumor reached volume 100 - 150 mm^3 (designated as day 1). Two i.v. injections were performed on day 1 and 8 (D1 and D8) of 5mg/kg of anti-Her2 mAbl-3.4 (DAR 3.9), 5mg/kg mAbl-3.11 (DAR 3.9), 5mg/kg isotype mAb-3.4 (DAR 3.9), 5mg/kg anti-Her2 mAb1 or PBS vehicle. […]
Compound 3.13 was conjugated to engineered light chain C110 and heavy chain C375 of anti-Her2 mAb (mAb3) as described above. […] After implant, tumors were measured by caliper and mice were weighed two times per week once tumors were palpable. Tumors were measured in two dimensions and tumor volumes were calculated from caliper measurements using formula (L × W^2)/2. […]

Data set [2] is described as follows: Pharmacokinetics of Compound 2.2 applied i.v. It counts as in vivo. The note with it: mice (Balb/c), 5mg/kg i.v. Here is the method:
Pharmacokinetics of Compound 2.2 applied I.V. at dose 5mg/kg was determined in Balb/c mice. Plasma samples were precipitated with methanol (final concetration 70%) spiked with internal standard, the precipited proteins were removed by centrigugation and supernatant was evaporated. The analytes were dissolved in 100 µL of 10 mM CH3COONH4 by vortexing for 5 min. Compound 22 along with the corresponding internal standard were separated and detected using a liquid chromatograph Exion LC AD with tandem mass spectrometer QTrap 6500+ (both Sciex) equipped with a separation column Acquity BEH C18 1.7 µm, 50 × 2.1 mm, as well as a guard column 1.7 µm C18, 5 × 2.1 mm (both Waters). The mobile phase (A) used for separation consisted of 10 mM CH3COONH4 in deionized water, while mobile phase (B) was composed of 10 mM CH3COONH4 in methanol. […] Analytes were monitored through their specific multiple reaction monitoring (MRM) transitions by utilizing electrospray ionization (ESI) in a positive mode with the following parameters: 50 msec dwell time, entrance potential 10 V, ion source temperature 350°C, ion spray voltage 5.5 kV, curtain gas (40 psi), GS1 gas (50 psi), and GS2 gas (50 psi). Quantification of Compound 2.2 was conducted using a weighted calibration curve (1/x^2) with a structurally similar internal standard.

For a further data set, the target named is T2, STING AQ (Homo sapiens, UniProt Q86WV6, G230A/H232R/R293Q).
T2 construct: expressed in transfected cells
Nature of the data set: 293T STING digitonin reporter assay (AQ haplotype). It counts as cell-based. Particulars: digitonin permeabilised 293T reporter cells. Here is the method:
as §1

The target of another data set is T3, STING REF (Homo sapiens, UniProt Q86WV6).
T3 construct: expressed in transfected cells
Nature of the data set: 293T STING digitonin reporter assay (REF haplotype). The data set is classed as cell-based. Particulars: digitonin permeabilised 293T reporter cells. Here is the method: as §1

For a further data set, the system named is STING Q. Nature of the data set: 293T STING digitonin reporter assay (Q haplotype). The data set is classed as cell-based, human. The note with it: digitonin permeabilised 293T reporter cells. Here is the method: as §1
The target of the next data set is T4, STING HAQ (Homo sapiens, UniProt Q86WV6, G230A/H232R/R293Q/R71H).
T4 construct: expressed in transfected cells
Nature of the data set: 293T STING digitonin reporter assay (HAQ haplotype). The data set is classed as cell-based. The note with it: digitonin permeabilised 293T reporter cells. Here is the method:
as §1

We go through one compound from patent EP4610267A1, “CYCLIC DINUCLEOTIDES AND CONJUGATES THEREOF WITH ANTIBODIES” (priority 2024, dated 2025).

The EC50 is the concentration that produces a half-maximal response.

T1 sequence (Q86WV6 whole entry H232R): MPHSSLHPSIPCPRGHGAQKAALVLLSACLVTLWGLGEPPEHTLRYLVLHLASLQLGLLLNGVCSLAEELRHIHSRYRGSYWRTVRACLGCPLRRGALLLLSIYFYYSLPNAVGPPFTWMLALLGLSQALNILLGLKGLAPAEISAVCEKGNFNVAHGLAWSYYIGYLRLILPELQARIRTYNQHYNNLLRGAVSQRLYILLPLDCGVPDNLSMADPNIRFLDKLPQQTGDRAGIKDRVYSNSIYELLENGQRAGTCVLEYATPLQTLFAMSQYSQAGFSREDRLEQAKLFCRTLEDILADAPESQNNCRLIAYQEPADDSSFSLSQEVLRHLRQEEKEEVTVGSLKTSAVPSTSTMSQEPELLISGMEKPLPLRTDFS
T4 sequence (Q86WV6 whole entry R71H/G230A/H232R/R293Q): as the sequence (Q86WV6 whole entry H232R) above, with R71H, G230A, R293Q counted along it
T2 sequence (Q86WV6 whole entry G230A/H232R/R293Q): as the sequence (Q86WV6 whole entry H232R) above, with G230A, R293Q counted along it
T3 sequence (Q86WV6 whole entry): as the sequence (Q86WV6 whole entry H232R) above, with R232H counted along it

Consider `Nc1ncnc2c1ncn2[C@@H]1O[C@@H]2OCP(=O)(S)O[C@@H]3[C@H](F)[C@@H](COP(=O)(S)OC[C@H]2[C@H]1F)O[C@H]3n1cnc2c(=O)[nH]cnc21` (single isomer, unassigned) [Compound 2.2], for which the EC50 on STING WT amounted to 20 nM; on STING AQ, 30 nM; at STING REF, 50 nM; with STING Q, 80 nM; on STING HAQ it was 20 nM. The “effect on HCC1954 tumors” value in data set [1] was “only triggered tumor growth inhibition”. In data set [2], the half-life result is “less than 10 minutes”.
